What is called melting point is the temperature of the solid-liquid transition. Usually inhibition in vivo stands for the drop in the measured response relative to a control, in per cent. A low value points to a response near the control.

In data set [1] the test system is pentagastrin-stimulated acid secretion of the perfused rat stomach. Put plainly: Secretion-inhibiting action on the perfused rat stomach (pentagastrin-stimulated acid secretion). The note with it: intraduodenal, anesthetized CD rat, dose 1 μmol/kg i.d. The format is in vivo. The source says: Testing of the Secretion-Inhibiting Action on the Perfused Rat Stomach
In Table A which follows, the influence of the compounds of the formula 1 according to the invention on the pentagastrin-stimulated acid secretion of the perfused rat stomach after intraduodenal administration in vivo is shown.
The abdomen of anesthetized rats (CD rat, female, 200-250 g; 1.5 g/kg i.m. urethane) was opened after tracheotomy by a median upper abdominal incision and a PVC catheter was fixed transorally in the esophagus and another via the pylorus such that the ends of the tubes just projected into the gastric lumen. The catheter leading from the pylorus led outward into the right abdominal wall through a side opening.
After thorough rinsing (about 50-100 ml), warm (37° C.) physiological NaCl solution was conbinuously passed through the stomach (0.5 ml/min, pH 6.8-6.9; Braun-Unita I). The pH (pH meter 632, glass electrode EA 147; φ=5 mm, Metrohm) and, by titration with a freshly prepared 0.01N NaOH solution to pH 7 (Dosimat 665 Metrohm), the secreted HCl were determined in the effluent in each case collected at an interval of 15 minutes.
The gastric secretion was stimulated by continuous infusion of 1 μg/kg (=1.65 mllh) of i.v. pentagastrin (left femoral vein) about 30 min after the end of the operation (i.e. after determination of 2 preliminary fractions). The substances to be tested were administered intraduodenally in a 2.5 ml/kg liquid volume 60 min after the start of the continuous pentagastrin infusion. The body temperature of the animals was kept at a constant 37.8-38° C. by infrared irradiation and heat pads (automatic, stepless control by means of a rectal temperature sensor).

As to `Cc1nc2c3c(c(C(=O)N4CC(F)C4)cc2n1C)CCC1(Cc2ccccc2C1)N3` [Example 15, 5-[(3-fluoroazetidin-1-yl)carbonyl]-2,3-dimethyl-1′,3,3′,6,7,9-hexahydrospiro[imidazo[4,5-h]quinoline-8,2′-indene]], the melting point is 259 to 260 °C. Also, the inhibition in vivo at 1 µmol/kg in data set [1] is above 80%.

Consider `Cc1nc2c3c(c(C(=O)N4CCC4)cc2n1C)CCC1(Cc2ccccc2C1)N3` [Example 23, 5-(azetidin-1-ylcarbonyl)-2,3-dimethyl-1′,3,3′,6,7,9-hexahydrospiro[imidazo[4,5-h]-quinoline-8,2′-indene]], for which the melting point was in the range of 222 to 223 °C. The same compound yielded an inhibition in vivo at 1 µmol/kg in data set [1] above 80%. On to `Cc1nc2c3c(c(C(=O)NC4CC4)cc2n1C)CCC1(Cc2ccccc2C1)N3.O=C(O)C(=O)O` [Example 36, N-cyclopropyl-2,3-dimethyl-1′,3,3′,6,7,9-hexahydrospiro[imidazo[4,5-h]quinoline-8,2′-indene]-5-carboxamide oxalate], for which the melting point was 242 to 243 °C. Compound `CNC(=O)c1cc2c(nc(C)n2C)c2c1CCC1(Cc3ccccc3C1)N2.Cl` returned a melting point of 309 to 311 °C. Turning to `C=CCn1c(C)nc2c3c(c(C(=O)OC)cc21)CCC1(Cc2ccccc2C1)N3` [Example 2, Methyl 3-allyl-2-methyl-1′,3,3′,6,7,9-hexahydrospiro[imidazo[4,5-h]quinoline-8,2′-indene]-5-carboxylate], the melting point is 142 to 142.5 °C. In turn, `CNC(=O)c1cc2c(nc(C)n2C)c2c1CCC1(Cc3ccccc3C1)N2` [Example 4, N,2,3-Trimethyl-1′,3,3′,6,7,9-hexahydrospiro[imidazo[4,5-h]quinoline-8,2′-indene]-5-carboxamide] had a melting point of 237 to 238 °C. Also, the inhibition in vivo at 1 µmol/kg in data set [1] was above 80%.

As to `Cc1nc2c3c(c(C(=O)N(C)C)cc2[nH]1)CCC1(Cc2ccccc2C1)N3` [Example 10, N,N,2-Trimethyl-1′,3,3′,6,7,9-hexahydrospiro[imidazo[4,5-h]quinoline-8,2′-indene]-5-carboxamide], the melting point turned out to be 183 °C. With `CNC(=O)c1cc2c(nc(C)n2C)c2c1CCC1(Cc3ccccc3C1)N2.CS(=O)(=O)O` [Example 28, N,2,3-Trimethyl-1′,3,3′,6,7,9-hexahydrospiro[imidazo[4,5-h]quinoline-8,2′-indene]-5-carboxamide methanesulphonate], the melting point lay in the range of 321 to 324 °C. On the same count and under the same terms, the figure for `CS(=O)(=O)O.Cc1nc2c3c(c(C(=O)NC4CC4)cc2n1C)CCC1(Cc2ccccc2C1)N3` [Example 37, N-cyclopropyl-2,3-dimethyl-1′,3,3′,6,7,9-hexahydrospiro[imidazo[4,5-h]quinoline-8,2′-indene]-5-carboxamide methanesulphonate] is 308 to 309 °C. For `Cc1nc2c3c(c(C(=O)NCCO)cc2n1C)CCC1(Cc2ccccc2C1)N3` [Example 17, N-(2-hydroxyethyl)-2,3-dimethyl-1′,3,3′,6,7,9-hexahydrospiro[imidazo[4,5-h]quinoline-8,2′-indene]-5-carboxamide], the melting point fell in the range of 167 to 168 °C. `COCCNC(=O)c1cc2c(nc(C)n2C)c2c1CCC1(Cc3ccccc3C1)N2.O=C(O)/C=C\C(=O)O` [Example 33, N-(2-methoxyethyl)-2,3-dimethyl-1′,3,3′,6,7,9-hexahydrospiro[imidazo[4,5-h]quinoline-8,2′-indene]-5-carboxamide maleate]: the melting point is 191 to 192 °C. `Cc1nc2c3c(c(C(=O)NC[C@H](C)O)cc2n1C)CCC1(Cc2ccccc2C1)N3` [Example 20, N-[(2S)-2-hydroxypropyl]-2,3-dimethyl-1′,3,3′,6,7,9-hexahydrospiro[imidazo[4,5-h]-quinoline-8,2′-indene]-5-carboxamide] registered a melting point of 224 to 225 °C.

In turn, `Cc1nc2c3c(c(C(=O)NC4CC4)cc2n1C)CCC1(Cc2ccccc2C1)N3` [Example 24, N-cyclopropyl-2,3-dimethyl-1′,3,3′,6,7,9-hexahydrospiro[imidazo[4,5-h]quinoline-8,2′-indene]-5-carboxamide] had a melting point of 247 to 248 °C. The compound also registered an inhibition in vivo at 1 µmol/kg in data set [1] above 80%. `CCOC(=O)c1cc2c(nc(C)n2C)c2c1CCC1(Cc3ccccc3C1)N2` [Example 1, Ethyl 2,3-dimethyl-1′,3,3′,6,7,9-hexahydrospiro[imidazo[4,5-h]quinoline-8,2′-indene]-5-carboxylate] displayed a melting point of 167 to 168 °C.

Regarding `CNC(=O)c1cc2c(nc(C)n2C)c2c1CCC1(Cc3ccccc3C1)N2.O=C(O)CC(=O)O` [Example 30, N,2,3-Trimethyl-1′,3,3′,6,7,9-hexahydrospiro[imidazo[4,5-h]quinoline-8,2′-indene]-5-carboxamide malonate], the melting point was 261 to 263 °C. In turn, `COCCNC(=O)c1cc2c(nc(C)n2C)c2c1CCC1(Cc3ccccc3C1)N2` [Example 16, N-(2-methoxyethyl)-2,3-dimethyl-1′,3,3′,6,7,9-hexahydrospiro[imidazo[4,5-h]quinoline-8,2′-indene]-5-carboxamide] showed a melting point of 186 to 187 °C. Moreover, the inhibition in vivo at 1 µmol/kg in data set [1] was above 80%. Compound `CNC(=O)c1cc2[nH]c(C)nc2c2c1CCC1(Cc3ccccc3C1)N2` [Example 9, N,2-dimethyl-1′,3,3′,6,7,9-hexahydrospiro[imidazo[4,5-h]quinoline-8,2′-indene]-5-carboxamide] showed a melting point of 240 to 241 °C.

Turning to `COCCN(C)C(=O)c1cc2c(nc(C)n2C)c2c1CCC1(Cc3ccccc3C1)N2` [Example 21, N-(2-methoxyethyl)-N,2,3-trimethyl-1′,3,3′,6,7,9-hexahydrospiro[imidazo[4,5-h]quinoline-8,2′-indene]-5-carboxamide], the melting point lay in the range of 160 to 161 °C. The inhibition in vivo at 1 µmol/kg in data set [1] is above 80%. The compound `COCCNC(=O)c1cc2c(nc(C)n2C)c2c1CCC1(Cc3ccccc3C1)N2.O=C(O)CC(=O)O` [Example 34, N-(2-methoxyethyl)-2,3-dimethyl-1′,3,3′,6,7,9-hexahydrospiro[imidazo[4,5-h]quinoline-8,2′-indene]-5-carboxamide malonate] showed a melting point of 176 to 177 °C. Compound `Cc1nc2c3c(c(CO)cc2n1C)CCC1(Cc2ccccc2C1)N3` [Example 6, (2,3-Dimethyl-1′,3,3′,6,7,9-hexahydrospiro[imidazo[4,5-h]quinoline-8,2′-inden]-5-yl)-methanol] registered a melting point of 272 to 274 °C. In turn, `C=CCn1c(C)nc2c3c(c(C(=O)OCC)cc21)CCC1(Cc2ccccc2C1)N3` [Example 3, Ethyl 3-allyl-2-methyl-1′,3,3′,6,7,9-hexahydrospiro[imidazo[4,5-h]quinoline-8,2′-indene]-5-carboxylate] registered a melting point of 150 °C. Same read-out and setting: the figure for `Cc1nc2c3c(c(C(=O)NCCCO)cc2n1C)CCC1(Cc2ccccc2C1)N3` [Example 26, N-(3-hydroxypropyl)-2,3-dimethyl-1′,3,3′,6,7,9-hexahydrospiro[imidazo[4,5-h]quinoline-8,2′-indene]-5-carboxamide] is 237 to 238 °C; for `CCOCCNC(=O)c1cc2c(nc(C)n2C)c2c1CCC1(Cc3ccccc3C1)N2` [Example 31, N-(2-ethoxyethyl)-2,3-dimethyl-1′,3,3′,6,7,9-hexahydrospiro[imidazo[4,5-h]quinoline-8,2′-indene]-5-carboxamide] it is 180 to 181 °C. Still for that read-out and setting: as for `COCCNC(=O)c1cc2c(nc(C)n2C)c2c1CCC1(Cc3ccccc3C1)N2.Cl`, the figure is 294 to 295 °C. With `COCCCNC(=O)c1cc2c(nc(C)n2C)c2c1CCC1(Cc3ccccc3C1)N2` [Example 27, N-(3-methoxypropyl)-2,3-dimethyl-1′,3,3′,6,7,9-hexahydrospiro[imidazo[4,5-h]quinoline-8,2′-indene]-5-carboxamide], the melting point was 188 to 189 °C. The inhibition in vivo at 1 µmol/kg in data set [1] is above 80%. Take `Cc1nc2c3c(c(C(=O)N(C)C[C@H](C)O)cc2n1C)CCC1(Cc2ccccc2C1)N3` [Example 19, N-[(2S)-2-hydroxypropyl]-N,2,3-trimethyl-1′,3,3′,6,7,9-hexahydrospiro[imidazo[4,5-h]-quinoline-8,2′-indene]-5-carboxamide]: the melting point lay in the range of 258 to 259 °C. With `CCNC(=O)c1cc2c(nc(C)n2C)c2c1CCC1(Cc3ccccc3C1)N2` [Example 32, N-ethyl-2,3-dimethyl-1′,3,3′,6,7,9-hexahydrospiro[imidazo[4,5-h]quinoline-8,2′-indene]-5-carboxamide], the melting point lay within 223 to 224 °C.

For the compound `Cc1nc2c3c(c(C(=O)N4CC(O)C4)cc2n1C)CCC1(Cc2ccccc2C1)N3` [Example 13, 1-[(2,3-dimethyl-1′,3,3′,6,7,9-hexahydrospiro[imidazo[4,5-h]quinoline-8,2′-inden]-5-yl)-carbonyl]azetidin-3-ol], the melting point lay within 171 to 172 °C. On the same count and under the same terms, as for `Cc1nc2c3c(c(C(=O)N(C)CCO)cc2n1C)CCC1(Cc2ccccc2C1)N3` [Example 12, N-(2-hydroxyethyl)-N,2,3-trimethyl-1′,3,3′,6,7,9-hexahydrospiro[imidazo[4,5-h]quinoline-8,2′-indene]-5-carboxamide], the figure is 194 to 195 °C.

The values above are taken from patent US20090093473A1, “Spiro-benzimidazoles as inhibitors of gastric acid secretion” (priority 2005, published 2009).
